# Patent publication US20240269095A1, “Rapid Onset Therapeutic Ketosis Enabled by D-BetaHydroxyButyric Acid Systems, Compounds and Methods for Stroke medication co-administration” (American Ketone Therapeutics LLC, priority 2022, published 2024)
# Assays:
# [1] = compared with ketone salts, literature table; cited from earlier work
# [2] = Stated properties of free D-BHB (Table 1); design: species or system human
# [3] = Blood ketone level by Abbott blood ketone meter / test strip after oral free D-BHB; assay type: in vivo, human
# Text: FIG. 9 is a graphical illustration of D-BHB exogenous ketone blood levels. The above Abbot blood ketone meter evidenced by Abbott blood test strip depicts the rapid rise in blood ketone levels from 0.1 mmol/L (absence of ketosis) to 2.7 mmol/L (ketosis) after oral bolus administration of 15 grams of bioidentical free D-BetaHydroxyButyric Acid. The ketone levels depicted are attained in the absence of a salt as well as without ester bonds. It is the free acid D-BHB exogenously administered which is bio-identical to the endogenous D-BHB free acid generated by the human body. The bioidentical ketone body D-BHB is first and foremost an energy source, which is directly and preferentially metabolized by the brain. D-BHB is also active as a signaling mechanism and neuro-inflammation reduction agent, resulting in broad and beneficial brain bioenergy related benefits.
# FIG. 10 is a graphical illustration of D-BHB exogenous ketone blood levels. FIG. 10 details rapid ketosis within 45 minutes confirmed by Abbott blood test strip after 10 g D-BHB with palatability agent administered by oral drink. Blood ketone levels document rise from 0.2 mmol/L to 1.8 mmol/L and 0.6 mmol/L to 1.9 mmol/L in a variety of test subjects. FIG. 10 reinforces the fact that supplementation by utilizing free D only BetaHydroxyButyric Acid without ketone salt or ketone ester is a reliable, reproducible method and system for rapid ketone level increase for stroke recovery and maintenance. While amounts of free D only BetaHydroxyButyric Acid taken for stroke effects may vary, it is an anticipated preferred embodiment that levels between 5 and 30 grams of D only BetaHydroxyButyric Acid are taken as needed for optimum recovery. Alternate embodiments may include lower or higher amounts, however, experimental evidence has confirmed optimal administration in this range for a wide variety of other applications.
# [4] = Continuous glucose monitoring (Abbot Libre CGM) with carbohydrate challenge; assay type: in vivo, human; settings: 10 g given 45 minutes before 50 g carbohydrate ingestion; compared with unsupplemented ingestion
# Text: FIG. 11 is a graphical illustration of continuous monitoring of body glucose levels. FIG. 11 depicts continuous glucose monitoring levels with carbohydrate challenge documented by Abbot Libre Continuous Glucose Monitoring (CGM) device. In this illustrative embodiment, glucose levels from a 50 g carbohydrate ingestion are depicted unaided by free D-BetaHydroxyButyric Acid on the left and repeated the following day with two 50 g carbohydrate ingestions accompanied by 10 g free D-BetaHydroxyButyric Acid administered 45 minutes before the carbohydrate insult. […] As free D-BetaHydroxyButyric Acid can lower glucose while rapidly increasing ketone levels, it is believed that obtaining high ketones while lowering glucose will yield additional stroke recovery benefits for high glucose sensitive individuals suffering from stroke.
# [5] = Continuous Ketone Meter (CKM) monitoring of body ketone levels and deep sleep; assay type: in vivo, human; settings: 5 grams consumed 45 minutes prior to bedtime
# Text: FIG. 12 is a graphical illustration of continuous monitoring of body ketone levels resulting in improved deep sleep time due to enhanced D-BHB levels according to the claimed invention. It is noteworthy that consumption of even small amounts of free D-BetaHydroxy Butyric Acid can give rise to therapeutic ketosis levels as measured by Continuous Ketone Meter (CKM). […] While free D-BetaHydroxyButyric Acid is not a sedative, even small amounts can greatly improve deep sleep quantity and quality. It is an intended and foreseeable embodiment application to increase deep sleep with free D-BetaHydroxyButyric Acid with the aim of improving stroke recovery and enhanced brain resiliency.
Structure (SMILES),ketone level response [1],Induces Ketoacidosis [2],Metabolism [2],time to ketosis ([3]; 10 g D-BHB with palatability agent by oral drink) [min],"blood ketone level after administration ([3]; 10 g with palatability agent by oral drink, test subject rising from 0.2 mmol/L) [mmol/L]","blood ketone level after administration ([3]; 10 g with palatability agent by oral drink, test subject rising from 0.6 mmol/L) [mmol/L]","blood ketone level after administration ([3]; oral bolus of 15 grams, rise from 0.1 mmol/L (absence of ketosis)) [mmol/L]",glucose spike after carbohydrate ingestion [4],deep sleep quantity [5],increase in ketone level (CKM) [5] [mmol/L]
"C[C@@H](O)CCOC(=O)C[C@@H](C)O [ketone ester, (R)-3-hydroxybutyl (R)-3-hydroxybutyrate]",higher ketone level response,–,–,–,–,–,–,–,–,–
"C[C@@H](O)CC(=O)O [free D-BetaHydroxyButyric Acid, D-β-HydroxyButyric Acid]",–,Induces Ketoacidosis: No,"Metabolism: Rapid, minutes",≤ 45,1.8,1.9,2.7,rapid glucose spike depicted in the unsupplemented ingestion is not found,enhance the quantity of deep sleep obtained,1.5
